pIC50: −log10 of the molar value.
Experiments:
HCMV DNA synthesis = HCMV DNA synthesis by dot-blot hybridization; type: cell-based, human cytomegalovirus in HFF cells; conditions: Human betaherpesvirus 5, read-out: HCMV DNA Synthesis, 50% Inhibitory Concentration
Procedure: The amount of HCMV DNA synthesis was determined in two types of experiments: (a) as an integral part of HCMV titer (yield) reduction experiments and (b) as separate experiments to determine only the amount of viral DNA synthesis in the absence or presence of test compounds.
HFF cells were planted in 25 cm^2 flasks and infected with HCMV as described in part 2 and incubated at 37° C. Before harvesting at selected times by the addition of 0.1 volume of 0.2M EDTA, an aliquot of medium was removed for determination of HCMV titer. After harvesting cells into the medium, aliquots were retained for determination of HCMV DNA by hybridization.
HFF cells were planted in 96-well cluster plates at 20,000 cell/well in 200 μl of growth medium [MEM(E)] with 1.1 gm/liter NaHCO3 and 10% fetal bovine serum. After incubation in a humidified atmosphere of 4% CO2 -96% air for 1 to 2 days, growth medium was aspirated and the 70% confluent cells were infected at a m.o.i. of 0.5 p.f.u. per cell by addition of HCMV in 100 μl of MEM(E) with 1.1 gm/l liter NaHCO3 and 5% fetal bovine serum (maintenance medium). Following a 1-hour incubation at 37° C. for virus adsorption, 100 μl of selected concentrations of test compounds were added to each of triplicate wells in twice their final concentration of maintenance medium. Usually 3 to 6 concentrations of compounds were tested in 3.2- or 10-fold dilutions along with appropriate triplicate no drug and no virus controls. Plates were incubated for 7 days and harvested by addition of 100 μl of 0.25M EDTA per well. After a 30-minute incubation of 37° C. to free the cells, the contents of the wells were filtered as described below or frozen at -76° C. for subsequent analysis. The following procedure adapted from Gadler, H., Antimicrob. Agents Chemother., 24:370 (1983) was employed for the hybridization portion of the assay:
The contents of each well were removed and filtered through Gene Screen™ (NEN Research Products), presoaked in 10×SSC (1×SSC is 0.15M NaCl, 0.015M NaCitrate), using a 96-well filtration manifold (Schleicher and Schuell). The original microtiter plate wells were rinsed with 200 μl HEPES buffered saline and the contents added to the filter manifold.
The Gene Screen membrane was dried at room temperature and then baked at 80° to 100° C. for 3 to 4 hours. The DNA on the membrane was denatured by placing the membrane (sample side up) sequentially on filter papers soaked in (a) 0.5M NaOH for 30 minutes, (b) 0.1 M NaOH, 1.5M NaCl for 5 minutes, (c) 1M Tris HCl, pH 7.5 twice each for 5 minutes, (d) 0.5M Tris HCl, pH 7.5, 1.5M NaCl for 5 minutes and then dried at room temperature. The membrane was added to a "hybridization bag" and prehybridized at 65° C. for (greater or equal to) 6 hours in 10 ml 0.2% polyvinylpyrrolidone (MW 40,000); 0.2% ficoll (MW 400,000); 0.2% bovine serum albumin; 0.05 M Tris HCl, pH 7.5; 0.1% sodium pyrophosphate; 1M NaCl; 10% dextran sulfate (ME 500,000) and 0.1 mg/ml denatured salmon testes DNA. […]
Following hybridization, the membrane was washed sequentially in 100 ml 2×SSC at room temperature twice each for 5 minutes, 100 ml 2×SCC plus 1% SDS at 65° C. twice each for 30 minutes and then 100 ml 0.1×SSC at room temperature twice each for 30 minutes. The membrane was dried at room temperature and each filtration spot was cut from the membrane and placed into 4 ml of toluene/DPO scintillant and hybridized label counted in a liquid scintillation spectrometer. […]

KB cells = test: cells; type: cell-based, human; conditions: Homo sapiens; [3H]dThd incorporation, KB cells; read-out: I50 on [3H]dThd incorporation
Procedure: KB or HFF cells were planted using a Costar Transplate-96 (Costar, Cambridge, Mass.) in Costar 96-well cluster dishes at a concentration of 10,000 to 12,000 cells per well. Wells were suspended in 200 μl of medium [MDM(H) plus 0.7 gm/liter NaCHO3 supplemented with 10% calf serum] per well. After incubation of 16 to 24 hours at 37° C. in a humidified atmosphere of 4% CO2 in air, […] of medium was removed per well. One-hundred μl of medium with or without compounds in twice their final concentrations was added to each well using a Titertek Multichannel Pipette. Final concentrations of compounds ranged from 0.1 to 320 μM. Fifty μl of medium containing radioactive precursors also was added to each well to give a final concentration to 1 to 3 μCi/ml of labeled precursor. [^3 H]Thd was diluted with unlabeled dThd to give a final concentration of 3 or 6 μM.
Logarithmic cell growth occurred during this time with continual uptake of labeled precursors. At the end of the incubation period, cells were individually harvested from each well using a Skatron Cell harvester (Skatronh, Inc., Sterling, Va.). Cultures for individual wells were harvested onto filter paper and washed free of unincorporated label with nine sequential washes with 5% trichloroacetic acid, nine washes with water, and nine with ethanol using the Skatron unit. Filters were dried, circles from individual cultures were punched from the filter mat and placed into mini-vials. Liquid scintillation solution was added, and radioactivity determined in a Beckman model LS8100 liquid scintillation spectrometer. All samples were counted for 2.0 minutes each, with three rounds of counting. Counts per minute were determined following the application of statistical methods to eliminate count rates which fell outside distribution limits defined by Chauvenet's rejection criterion.
All analyses were performed in triplicate. That is, three culture wells were used per time point, radioactive precursor, and drug concentration in all experiments. Results from triplicate assays were converted to percent of control and plotted as log dose-response curves from which 50% inhibitor (I50) concentrations were interpolated. Three concentrations of vidarabine were included on all plates as a positive control.
Dose-response relationships were used to compare drug effects. These were constructed by linearly regressing the percent inhibition of parameters derived in the preceding sections against log drug concentrations. The 50% inhibitory (I50) concentrations were calculated from the regression lines using the methods described by Goldstein. See Goldstein, A., Biostatistics: An Introductory Text, MacMillan, N.Y., 1964, pp. 156-161. Along with the I50 concentration for visual cytotoxicity, the averaged I50 concentrations are compared to I50 concentrations for inhibition for HCMV or HSV-1 replication. Compounds for which the ratio of cytotoxicity I50 concentrations to antiviral I50 concentrations (in vitro therapeutic index) were greater than 10, were considered for further study.

Compound	pIC50 (HCMV DNA synthesis)	pIC50 (KB cells)
Nc1nc2c(ncn2COCCO)c(=O)[nH]1 [Acyclovir, reference compound]	4.46	–
Nc1nc(O)c2ncn(COC(CO)CO)c2n1 [Ganciclovir (DHPG), reference compound]	5.96	–
Nc1ncnc2c1c(Cl)cn2COCCO [UMJD 100, 4-Amino-5-chloro-7-(2-hydroxyethoxymethyl)pyrrolo[2,3-d]-pyrimidine]	4.82	6.09
Nc1ncnc2c1c(Br)cn2COCCO [UMJD 102, 4-Amino-5-bromo-7-(2-hydroxyethoxymethyl)pyrrolo[2,3-d]-pyrimidine]	5.49	6.89
Nc1ncnc2c1c(I)cn2COCCO [UMJD 104, 4-Amino-5-iodo-7-(2-hydroxyethoxymethyl)pyrrolo[2,3-d]-pyrimidine]	4.33	5.92
Nc1ncnc2c1c(Cl)cn2COC(CO)CO [UMJD 186, 4-amino-5-chloro-7-[(1,3-dihydroxy-2-propoxy)-methyl]pyrrolo[2,3-d]pyrimidine]	–	4.55
